Measurements reported in US11214594B2, “Antimicrobial peptide having synergistic antibacterial effect with antibiotics on multidrug resistant bacteria, and use thereof” (priority 2016, dated 2022).
≈ marks a conversion by molar mass, not a printed value. Where two headings read alike, the source gives them in different places. Where a SMILES comes first, the peptide text is derived from it. [ ]: non-standard residue; d: D form.

How the values were obtained:
[1] = test system: A. baumannii; test: microbe, parasite or virus in culture; assay type: cell-based, Acinetobacter baumannii
How it was run: (§1)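 Broth microdilution in MH medium: bacterial strains diluted to 2×10^6 CFU were mixed with equal volumes of peptide serially diluted twofold in MH medium.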

[2] = test system: MDRAB 12035; test: microbe, parasite or virus in culture; assay type: cell-based, Acinetobacter baumannii
How it was run: as §1

[3] = test system: S. typhimurium; test: microbe, parasite or virus in culture; assay type: cell-based, Salmonella typhimurium
How it was run: as §1

[4] = test system: MDRST 8009; assay type: cell-based, Salmonella typhimurium; details: agent alone
How it was run: as §1

[5] = test system: MRSA 3114; assay type: cell-based, Staphylococcus aureus
How it was run: as §1

[6] = test system: MRSA 3126; assay type: cell-based, Staphylococcus aureus
How it was run: as §1

[7] = test system: S. epidermidis; test: microbe, parasite or virus in culture; assay type: cell-based, Staphylococcus epidermidis
How it was run: as §1

[8] = test system: MDRAB 12035; test: MIC of antibiotic during combined treatment with antimicrobial peptide; assay type: cell-based, Acinetobacter baumannii
How it was run: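 Strains in MH medium at 2×10^6 CFU/ml were mixed with peptide diluted stepwise (2:1) from its MIC, then antibiotic dilutions in MH medium were added to give the antibiotic MIC. The reversed set-up, peptide titrated against fixed antibiotic, gave the peptide MIC.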

[9] = test system: gram-negative bacteria; test: MIC, summary statements for gram-negative bacteria; assay type: cell-based; details: most of the gram-negative bacteria
How it was run: as §1

[10] = test system: P. aeruginosa; test: microbe, parasite or virus in culture; assay type: cell-based, Pseudomonas aeruginosa
How it was run: as §1

[11] = test system: MDREC 1238; assay type: cell-based, Escherichia coli
How it was run: as §1

[12] = test system: MDRPA 2003; assay type: cell-based, Pseudomonas aeruginosa
How it was run: as §1

[13] = test system: MDRPA 2002; assay type: cell-based, Pseudomonas aeruginosa
How it was run: as §1

[14] = test system: A. baumannii; assay type: cell-based, Acinetobacter baumannii
Description: (§2) A synergistic effect of a peptide and antibiotics was evaluated at antibacterial activity against a strain by using an MIC value determined for each mixed solution. For the evaluation, a fractional inhibitory concentration (FIC) value was used (Elion, Gertrude B., Samuel Singer, and George H. Hitchings. Journal of Biological Chemistry 208.2 (1954): 477-488.).
(§3) A method generally used to decide the synergistic effect by using the FIC values is a checkerboard assay, and is a method that selects the lowest FIC index value in a well in which the growth of bacteria is suppressed. However, the selection of one FIC index in the method has a problem in that when the antibacterial activity of the antibiotics is lower, the FIC index is calculated so as to have a big synergistic effect, and is not accurate and has many experimental errors. Thus, with respect to the FIC index calculated by [Equation 1], an average FIC index was again calculated by using the following [Equation 2] (He, Jing, Charles G. Starr, and William C. Wimley. Biochimica et Biophysica Acta (BBA)-Biomembranes 1848.1 (2015): 8-15.).

[15] = test system: MDRAB 12035; assay type: cell-based, Acinetobacter baumannii
Description: as §2, §3

[16] = test system: multi-drug resistant bacteria; test: MIC, summary statements for multi-drug resistant bacteria; assay type: cell-based
How it was run: as §1

[17] = test system: E. coli; assay type: cell-based, Escherichia coli
Description: as §2, §3

[18] = test system: MDREC 1229; assay type: cell-based, Escherichia coli
Description: as §2, §3

[19] = peptide treatment concentration 1 μg/ml
[20] = peptide treatment concentration 2 μg/ml
[21] = peptide treatment concentration 4 μg/ml
[22] = peptide treatment concentration 6 μg/ml
[23] = peptide treatment concentration 8 μg/ml
[24] = peptide treatment concentration 16 μg/ml
[25] = peptide treatment concentration 32 μg/ml
[26] = peptide treatment concentration 64 μg/ml
[27] = peptide combined with erythromycin
[28] = peptide combined with linezolid
[29] = peptide combined with vancomycin

Compound: CC[C@H](C)[C@H](NC(=O)[C@H](CCCCN)NC(=O)[C@H](Cc1c[nH]c2ccccc12)NC(=O)[C@@H](N)CCCNC(=N)N)C(=O)N[C@@H](Cc1ccccc1)C(=O)N[C@@H](CCCCN)C(=O)N[C@@H](CCCCN)C(=O)N[C@H](C(=O)N1CCC[C@H]1C(=O)N[C@@H](CCCCN)C(=O)N[C@@H](CC(C)C)C(=O)N[C@@H](CC(C)C)C(=O)N[C@@H](Cc1c[nH]cn1)C(=O)N[C@@H](CO)C(=O)N[C@@H](CC(C)C)C(=O)N[C@@H](CCCCN)C(=O)N[C@@H](CCCCN)C(=O)N[C@@H](Cc1ccccc1)C(N)=O)[C@@H](C)CC [PapMA-8, RWK IFK KIP KLL HSL KKF-NH2] (H-RWKIFKKIPKLLHSLKKF-NH2; N-terminus assumed)
- Minimal inhibitory concentration MIC [1]: 32 µg/mL (≈ 13.9 µM)
- Peptide MIC, peptide alone [1]: 32 µg/mL
- Minimal inhibitory concentration MIC [2]: 64 µg/mL (≈ 27.7 µM)
- Peptide MIC, peptide alone [2]: 64 µg/mL
- Minimal inhibitory concentration MIC [3]: 32 µg/mL (≈ 13.9 µM)
- Minimal inhibitory concentration MIC [4]: 64 µg/mL (≈ 27.7 µM)
- Minimal inhibitory concentration MIC [5]; 3114: >128 µg/mL
- Minimal inhibitory concentration MIC [6]; 3126: >128 µg/mL
- Minimal inhibitory concentration MIC [7]: >128 µg/mL
- Erythromycin MIC during combined treatment with peptide [8, 19]: 32 µg/mL
- Linezolid MIC during combined treatment with peptide [8, 19]: >128 µg/mL
- Vancomycin MIC during combined treatment with peptide [8, 19]: >128 µg/mL
- Erythromycin MIC during combined treatment with peptide [8, 20]: 32 µg/mL
- Linezolid MIC during combined treatment with peptide [8, 20]: >128 µg/mL
- Vancomycin MIC during combined treatment with peptide [8, 20]: >128 µg/mL
- Erythromycin MIC during combined treatment with peptide [8, 21]: 16 µg/mL
- Linezolid MIC during combined treatment with peptide [8, 21]: 64 µg/mL
- Vancomycin MIC during combined treatment with peptide [8, 21]: 64 µg/mL
- Erythromycin MIC during combined treatment with peptide [8, 22]: 8 µg/mL
- Linezolid MIC during combined treatment with peptide [8, 22]: 32 µg/mL
- Vancomycin MIC during combined treatment with peptide [8, 22]: 32 µg/mL
- Erythromycin MIC during combined treatment with peptide [8, 23]: 4 µg/mL
- Linezolid MIC during combined treatment with peptide [8, 23]: 16 µg/mL
- Vancomycin MIC during combined treatment with peptide [8, 23]: 8 µg/mL
- Erythromycin MIC during combined treatment with peptide [8, 24]: 2 µg/mL
- Linezolid MIC during combined treatment with peptide [8, 24]: 4 µg/mL
- Vancomycin MIC during combined treatment with peptide [8, 24]: 4 µg/mL
- Erythromycin MIC during combined treatment with peptide [8, 25]: 1 µg/mL
- Linezolid MIC during combined treatment with peptide [8, 25]: 2 µg/mL
- Vancomycin MIC during combined treatment with peptide [8, 25]: 2 µg/mL
- Erythromycin MIC during combined treatment with peptide [8, 26]: 0 µg/mL
- Linezolid MIC during combined treatment with peptide [8, 26]: 0 µg/mL
- Vancomycin MIC during combined treatment with peptide [8, 26]: 0 µg/mL
- Antibacterial activity relative to PapMA-1, PapMA-2, PapMA-3 and PapMA-4 [9]: same or higher
- Minimal inhibitory concentration MIC [10]: 16 µg/mL (≈ 6.93 µM)
- Antibacterial activity (in words) ([10]; P. aeruginosa and S. typhimurium): significantly increased
- Minimal inhibitory concentration MIC [11]: 64 µg/mL (≈ 27.7 µM)
- Minimal inhibitory concentration MIC [12]: 16 µg/mL (≈ 6.93 µM)
- Minimal inhibitory concentration MIC [13]: 16 µg/mL (≈ 6.93 µM)

Compound: CC[C@H](C)[C@H](NC(=O)[C@H](CCCCN)NC(=O)[C@H](Cc1c[nH]c2ccccc12)NC(=O)[C@@H](N)CCCNC(=N)N)C(=O)N[C@@H](Cc1ccccc1)C(=O)N[C@@H](CCCCN)C(=O)N[C@@H](CCCCN)C(=O)N[C@H](C(=O)N[C@H](CC(C)C)C(=O)N[C@@H](CCCCN)C(=O)N[C@@H](CC(C)C)C(=O)N[C@@H](CC(C)C)C(=O)N[C@@H](Cc1c[nH]cn1)C(=O)N[C@@H](CCCCN)C(=O)N[C@@H](Cc1ccccc1)C(=O)N[C@@H](CCCCN)C(=O)N[C@@H](CCCCN)C(=O)N[C@@H](Cc1ccccc1)C(N)=O)[C@@H](C)CC [PapMA-21, RWK IFK KIl KLL HKF KKF-NH2] (H-RWKIFKKI[dL]KLLHKFKKF-NH2; N-terminus assumed)
- Minimal inhibitory concentration MIC [1]: 32 µg/mL (≈ 13.3 µM)
- Peptide MIC, peptide alone [1]: 32 µg/mL
- Antibacterial activity relative to PapMA-1 ([1]; A. baumannii and S. typhimurium): at least twice as high
- Minimal inhibitory concentration MIC ([2]; MDRAB 12035, agent alone): 32 µg/mL (≈ 13.3 µM)
- Peptide MIC, peptide alone ([2]; MDRAB 12035, no antibiotic): 32 µg/mL
- Minimal inhibitory concentration MIC [3]: 32 µg/mL (≈ 13.3 µM)
- Minimal inhibitory concentration MIC [4]: 32 µg/mL (≈ 13.3 µM)
- Minimal inhibitory concentration MIC ([5]; MRSA 3114, agent alone): >128 µg/mL
- Minimal inhibitory concentration MIC ([6]; MRSA 3126, agent alone): >128 µg/mL
- Minimal inhibitory concentration MIC [7]: >128 µg/mL
- Erythromycin MIC during combined treatment with peptide [8, 19]: 32 µg/mL
- Linezolid MIC during combined treatment with peptide [8, 19]: >128 µg/mL
- Vancomycin MIC during combined treatment with peptide [8, 19]: >128 µg/mL
- Erythromycin MIC during combined treatment with peptide [8, 20]: 32 µg/mL
- Linezolid MIC during combined treatment with peptide [8, 20]: >128 µg/mL
- Vancomycin MIC during combined treatment with peptide [8, 20]: >128 µg/mL
- Erythromycin MIC during combined treatment with peptide [8, 21]: 16 µg/mL
- Linezolid MIC during combined treatment with peptide [8, 21]: 64 µg/mL
- Vancomycin MIC during combined treatment with peptide [8, 21]: 128 µg/mL
- Erythromycin MIC during combined treatment with peptide [8, 22]: 4 µg/mL
- Linezolid MIC during combined treatment with peptide [8, 22]: 32 µg/mL
- Vancomycin MIC during combined treatment with peptide [8, 22]: 64 µg/mL
- Erythromycin MIC during combined treatment with peptide [8, 23]: 1 µg/mL
- Linezolid MIC during combined treatment with peptide [8, 23]: 16 µg/mL
- Vancomycin MIC during combined treatment with peptide [8, 23]: 32 µg/mL
- Erythromycin MIC during combined treatment with peptide [8, 24]: 0.5 µg/mL
- Linezolid MIC during combined treatment with peptide [8, 24]: 8 µg/mL
- Vancomycin MIC during combined treatment with peptide [8, 24]: 16 µg/mL
- Erythromycin MIC during combined treatment with peptide [8, 25]: 0 µg/mL
- Linezolid MIC during combined treatment with peptide [8, 25]: 0 µg/mL
- Vancomycin MIC during combined treatment with peptide [8, 25]: 0 µg/mL
- Erythromycin MIC during combined treatment with peptide [8, 26]: 0 µg/mL
- Linezolid MIC during combined treatment with peptide [8, 26]: 0 µg/mL
- Vancomycin MIC during combined treatment with peptide [8, 26]: 0 µg/mL
- Average FIC index, Erythromycin [14, 27]: 0.40
- Average FIC index, Linezolid [14, 28]: 0.35
- Average FIC index, Vancomycin [14, 29]: 0.11
- Average FIC index, Erythromycin [15, 27]: 0.49
- Average FIC index, Linezolid [15, 28]: 0.22
- Average FIC index, Vancomycin [15, 29]: 0.17
- Antibacterial activity relative to PapMA-1 [16]: twice to four times higher
- Minimal inhibitory concentration MIC [10]: 32 µg/mL (≈ 13.3 µM)
- Minimal inhibitory concentration MIC ([11]; MDREC 1238, agent alone): 32 µg/mL (≈ 13.3 µM)
- Average FIC index, Erythromycin [17, 27]: 0.15
- Average FIC index, Linezolid [17, 28]: 0.35
- Average FIC index, Vancomycin [17, 29]: 0.21
- Average FIC index, Erythromycin [18, 27]: 0.15
- Average FIC index, Linezolid [18, 28]: 0.28
- Average FIC index, Vancomycin [18, 29]: 0.26
- Minimal inhibitory concentration MIC ([12]; MDRPA 2003, agent alone): 32 µg/mL (≈ 13.3 µM)
- Minimal inhibitory concentration MIC ([13]; MDRPA 2002, agent alone): 32 µg/mL (≈ 13.3 µM)
